Data on one compound can be found in patent US20130331427A1, “METHODS OF STIMULATING CELLULAR GROWTH, SYNAPTIC, REMODELING AND CONSOLIDATION OF LONG-TERM MEMORY” (Blanchette Rockefeller Neuroscience Institute, priority 2007, published 2013).

Series [1] deals with rats. Description: rat spatial (water) maze learning and memory. The class given is in vivo.
The conditions of series [2]: cited from earlier work.
The test system of series [3] is presynaptic markers. Description: pre- and postsynaptic markers, quantitative confocal immunohistochemistry. The class given is in vivo, rat. To be noted: bryostatin alone. The source says:
Water maze training increased the numbers of the dendritic spine marker spinophilin (FIG. 29; Panel B), postsynaptic membrane marker neurogranin (FIG. 29; Panels A and D), and presynaptic marker GAP-43 (Panels A and E), but not the axon bouton marker synaptophysin (FIG. 29; Panels A and B), as determined by quantitative confocal immunohistochemistry.

For series [4], the system named is calexcitin. Description: calexcitin immunostaining in Hermissenda B-photoreceptors. The class given is in vivo. The method, then:
Following experimental treatments and testing, animals were rapidly decapitated, the central nervous systems (CNS) removed and then fixed in 4% para-formaldehyde in 20 mM Tris-buffered (pH 8) natural seawater (NSW; 0.2 μm micropore-filtered). The CNSs were then embedded in polyester wax (20), sectioned (6 μm) and immunostained using a biotinylated secondary antibody coupled to avidin-bound microperoxidase (ABC method, Vector), Aminoethylcarbazole (AEC) was used as the chromogen. The primary polyclonal antibody (designated 25U2) was raised in rabbits from the full length calexcitin protein extracted from squid optic lobes. Gray-scale intensity measures were done from digital photomicrographs on circumscribed cytoplasmic areas of the B-photoreceptors minus the same background area (non-staining neuropile).
Micrographs (A, B) depict representative tissue sections from Hermissenda eyes that were immunolabeled with the calexcitin polyclonal antibody, 25U2. […] Differences in staining intensities were measured and recorded as gray-scale intensities (0-256; B-cell cytoplasm minus tissue background).

As to `CCC/C=C/C=C/C(=O)O[C@H]1/C(=C/C(=O)OC)C[C@H]2C[C@H]([C@@H](C)O)OC(=O)C[C@H](O)C[C@@H]3C[C@H](OC(C)=O)C(C)(C)[C@](O)(C[C@@H]4C/C(=C/C(=O)OC)C[C@H](/C=C/C(C)(C)[C@]1(O)O2)O4)O3` [bryostatin, bryostatin-1], in series [1] (10 μg/kg i.p. 20 min before training on day 1, 3, 5, vs. controls), the “latency to reach the platform” value is reported as “greatly reduced”. Moreover, in series [1] (retention Day 1), the “number of target crossings” value is on record as “similarly enhanced”. For the same compound, the “time to reach the target quadrant” value in series [1] (retention day 1, 24 hours after all training) is “reduced”. Also, in series [2] (20 μg/m^2 once per week for 3 weeks), the tolerability entry was “well tolerated”. The maximum-tolerated dose in series [2] (1 hour i.v. infusion once every 2 weeks for 6 weeks) is 50 μg/m^2. In series [2] (once per week for 8 weeks), the maximum tolerated dose was 25 μg/m^2. Further, the “myalgia reported, share of all treated patients” value in series [2] (phase II clinical trials) is recorded as 10 to 87%. Further, the “number of presynaptic markers” value in series [3] is on record as “increased”. For the same compound, the CE immunostaining result in series [4] (bryostatin alone, 24 hours after 1 exposure for four hours) was “not elevated”; in series [4] (bryostatin alone, 24 hours after 2 exposures on two successive days), “greater residual CE immunostaining”; in series [4] (bryostatin plus 6 TE), “comparable to that observed after 9 TE”. Moreover, the “increase of calexcitin levels” value in series [4] (paired training (6PTE), bryostatin 0.25) is recorded as “greater than 4.3 ×”. Moreover, in series [4] (random training (4RTE), bryostatin 0.25), the “rise in CE (calexcitin)” value turned out to be 2.0. Also, the calexcitin level result in series [4] (two exposures on successive days 0.25 ng/ml, 2-paired TEs, vs 9-random TEs) is on record as “significantly increased”.
